{"source": "patent US5571799A", "about": "“(2'-5') oligoadenylate analogues useful as inhibitors of host-v5.-graft response” (Basco, Ltd., priority 1994, dated 1996)", "key": {"T-killers [1]": {"system": "T-killers", "test": "Immune system of monkeys: T-killers, flow cytofluorografic analysis", "assay_type": "in vivo, Macaque Rh. monkeys", "description": "(§1) The experiments were performed on 4 year-old Macaque Rh. monkeys. The levels of the principal subpopulations of T-lymphocytes, IgA, IgG, IgM and the amount of α- and γ-interferon and interleukin II after administration (2'-5')olygoadenylate and its analogies at the concentration of 50 and 25 μg/kg of the body weight was investigated.\n(§2) FLOW CYTOFLUOROGRAFIC ANALYSIS OF LYMPHOCYTE SUBSETS\n(§3) Blood samples (100 μl of whole blood) were placed into a 12×17 tube. To these cells 20 μl of purified monoclonal antibodies were added with specificity for human cytotoxic/suppressor cells anti-Leu-2a (CD8), human helper/inducer anti-Leu-3a (CD4) and FITC conjugated monoclonal antibodies with specificity for natural killer cells-anti-Leu11c (CD16) (Becton Dickinson, San Jose). After 30 minutes incubation on ice, the cells were washed once and 20 μl of goat-antimouse chain phycoerythrin (Sigma P1286) conjugate were added to the tube with anti-Leu-2a and anti-Leu-3a monoclonal antibodies.\n(§4) After erythrocyte lysing with FACS lysing solution (Becton Dickinson, San Jose) the cells were analyzed on FACScan flow cytometer (Becton Dickinson, San Jose) with scatter gate set on lymphocyte fraction."}, "transplanted kidney": {"system": "transplanted kidney", "test": "Kidney cross-allotransplantation in monkeys: graft function", "assay_type": "in vivo, Macaque Rh. monkeys", "description": "(§5) The experiments were performed on 4 year-old Macaque Rh. monkeys. Each cohort consisted of 3 animals. […] The results of the experiments were evaluated clinically: by the presence or absence of urination from the ureterocutaneostoma.\n(§6) After intravenous anesthesia with Ketalar®, an extraperitoneal access to the left kidney was performed through layer by layer cuts to the left lumbar region. The kidney was excised from the surrounding tissues. A clamp was applied to the vessel limb; the artery, the vein and the ureter each were prepared for anastomosis separately. The kidney was excised and transferred for hypothermal conservation in Collins' solution.\n(§7) The donor kidney was transplanted into the recipient. […] anastomosis was performed: the graft arteries and veins attached to the appropriate recipient kidney vessels through plastic tubes. The kidney having been resuscitated by in blood flow, acquired the normal color and turgor. Additional hemostasis in the wound was performed. Ureterocutaneostomy was performed, which was followed by applying layer-upon-layer sutures on the wound and its aseptic dressing.\n(§8) The monkeys were narcotized by means of the intravenous anesthesia with Ketalar® and subjected to medial laparotomy from the xiphoid down to the pubic joint. Access to the left Kidney was made extraperitoneally. The kidney was teased from the surrounding tissues. A clamp was put on the vessel limb; the artery, the vein and the ureter were dressed separately; the kidney was cut and transferred for hypothermal conservation in Collins' solution.\nThe internal iliac artery and the external iliac vein were extracted extra-peritoneally, immobilized and prepared for anastomosis. The donor kidney was transferred to the recipient. Vessel anastomosis was performed: the graft arteries were anastomosed with the internal iliac artery according to the end-to-end method and the graft veins were anastomosed with the external iliac vein according to the end-to-side method. The kidney having been engaged in blood flow, acquired a normal color and turgor. […]"}, "[2]": {"system": "natural compound 2'-5'A3 in blood plasma and blood cells", "test": "Duration of activity in the blood of rabbits (radioimmune and fluoroimmune detection)", "assay_type": "in vivo", "conditions": "10 min after one injection, 10 μg/kg, rabbit", "from_the_text": "Duration of (2'-5')A2 Ar-epoxy Activity in the Blood of Rabbits\nIn order to study (2'-5')A2 Ar-epoxy pharmacodynamics, the radioimmune and fluoroimmune techniques were developed for its detection in tissue."}, "IgG, IgA, IgM": {"system": "IgG, IgA, IgM", "test": "Immunoglobulins in monkeys after kidney transplantation", "assay_type": "in vivo, Macaque Rh. monkeys", "conditions": "50 μg/kg IV; for IgA: 2 days pre-op. 0.4; for IgM: 2 days pre-op. 0.8; for IgG: 2 days pre-op. 13", "description": "Serum levels of IgG, IgA, IgM were determined by radial immunodiffusion using antisera against human immunoglobulin A, M, G. The amount of interferon and interleukine-II were determined by the method of Lopez-Botet M. et al., 1982.\nas §5\n(§9) During our experiments we have divided monkeys into two groups, three monkeys to each group. For the first group (2'-5')A2 Ar-epoxy was administered intravenously at concentration of 50 μg/kg two days before the operation and at the second, sixth, and twelfth day after the operation and then every sixth day. […] After transplantation kidney functions were restored within 10 hours."}, "T-killers [3]": {"system": "T-killers", "test": "T-killers in monkeys after kidney transplantation", "assay_type": "in vivo, Macaque Rh. monkeys", "conditions": "second group, 50 μg/kg every other day", "description": "as §2, §3, §4, §5\nAfter intravenous anesthesia with Ketalar®, an extraperitoneal access to the left kidney was performed through layer by layer cuts to the left lumbar region. The kidney was excised from the surrounding tissues. […]"}, "T-helpers": {"system": "T-helpers", "test": "T-helpers in monkeys after kidney transplantation", "assay_type": "in vivo, Macaque Rh. monkeys", "conditions": "for T-helpers: 50 μg/kg IV, 2 days pre-op. 30", "description": "as §2, §3, §4, §5, §6, §7, §8\nThe internal iliac artery and the external iliac vein were extracted extra-peritoneally, immobilized and prepared for anastomosis. The donor kidney was transferred to the recipient. Vessel anastomosis was performed: the graft arteries were anastomosed with the internal iliac artery according to the end-to-end method and the graft veins were anastomosed with the external iliac vein according to the end-to-side method. The kidney having been engaged in blood flow, acquired a normal color and turgor. Bleeding on the line of the arterial anastomosis was stopped by making additional sutures. Ureterocutaneostomy was performed. The abdominal cavity was lavaged with the solution of disodium carbenicillin. Layer-upon-layer sutures on the wound were applied. Aseptic dressing was performed.\nas §9\nThe administration schedule of (2'-5')A2 Ar-epoxy was modified slightly for the second group of monkeys. The preparation was injected two days before the operation and every other day at a concentration of 50 μg/kg during the entire post-transplantation period. […] The number of T-helpers dropped correspondingly from 37% to 7%. […] During the entire postoperative period, this activity tendency continues."}, "T-suppressors": {"system": "T-suppressors", "test": "Immune system of monkeys: T-suppressors, flow cytofluorografic analysis", "assay_type": "in vivo, Macaque Rh. monkeys", "conditions": "for T-suppressor: single IV 25 μg/kg; for T-suppressors: single IV 50 μg/kg", "description": "as §1, with “Immunosuppressive activity of the prototype 2'-5'A3 and two analogues (2'-5')A2 Ar-epoxy and (2'-5')A2 A^l-epoxy were investigated in monkeys. The experiments” for “The experiments”\nas §2, §3, §4"}}, "note": "“Also recorded” adds a separate entry of the source.", "data": [{"substance": "Adenylyl (2'-5')adenylyl (2'-5')-9-(2,3-anhydro-β-D-ribofuranosyl) adenine disodium salt [(2'-5')A2 Ar-epoxy]", "values": [{"measurement": "T-killers", "setting": "T-killers [1]; single IV 25 μg/kg, day 0 (baseline)", "value": 9.9, "unit": "%"}, {"measurement": "T-killers", "setting": "T-killers [1]; single IV 25 μg/kg, day 1", "value": 12, "unit": "%"}, {"measurement": "T-killers", "setting": "T-killers [1]; single IV 25 μg/kg, day 2", "value": 8, "unit": "%"}, {"measurement": "T-killers", "setting": "T-killers [1]; single IV 25 μg/kg, day 4", "value": 4, "unit": "%"}, {"measurement": "T-killers", "setting": "T-killers [1]; single IV 25 μg/kg, day 8", "value": 4, "unit": "%"}, {"measurement": "T-killers", "setting": "T-killers [1]; single IV 25 μg/kg, day 12", "value": 4, "unit": "%"}, {"measurement": "T-killers", "setting": "T-killers [1]; single IV 25 μg/kg, day 21", "value": 6.4, "unit": "%"}, {"measurement": "T-killers", "setting": "T-killers [1]; single IV 50 μg/kg, day 0 (baseline)", "value": 12, "unit": "%"}, {"measurement": "T-killers", "setting": "T-killers [1]; single IV 50 μg/kg, day 1", "value": 9, "unit": "%"}, {"measurement": "T-killers", "setting": "T-killers [1]; single IV 50 μg/kg, day 2", "value": 7, "unit": "%"}, {"measurement": "T-killers", "setting": "T-killers [1]; single IV 50 μg/kg, day 4", "value": 1.5, "unit": "%"}, {"measurement": "T-killers", "setting": "T-killers [1]; single IV 50 μg/kg, day 8", "value": 4.4, "unit": "%"}, {"measurement": "T-killers", "setting": "T-killers [1]; single IV 50 μg/kg, day 12", "value": 9, "unit": "%"}, {"measurement": "T-killers", "setting": "T-killers [1]; single IV 50 μg/kg, day 21", "value": 19.3, "unit": "%"}, {"measurement": "prevention of transplant rejection / kidney function, in words", "setting": "transplanted kidney; 50 μg/kg IV, disodium salt", "value": "protects the transplant from rejection, and renews normal functioning of the transplanted kidney; also recorded: transplanted kidney resumes and maintains its normal functions; also recorded: effectively prevent the rejection"}, {"measurement": "time to restoration of kidney function after transplantation", "setting": "transplanted kidney; first group: 50 μg/kg IV 2 days pre-op., days 2, 6, 12, then every sixth day", "value": "≤ 10", "unit": "h"}, {"measurement": "time to restoration of kidney function after transplantation", "setting": "transplanted kidney; second group: 50 μg/kg 2 days pre-op. and every other day", "value": "≤ 10", "unit": "h"}, {"measurement": "decrease of the level of natural compounds in blood plasma", "setting": "[2]", "value": 10, "unit": "fold"}, {"measurement": "increase of concentration of natural compounds in blood cells", "setting": "[2]", "value": 10, "unit": "fold"}, {"measurement": "IgA", "setting": "IgG, IgA, IgM; day 5 post-op.", "value": 2.07, "unit": "g/L"}, {"measurement": "IgM", "setting": "IgG, IgA, IgM; day 5 post-op.", "value": 0.75, "unit": "g/L"}, {"measurement": "IgG", "setting": "IgG, IgA, IgM; day 5 post-op.", "value": 12.2, "unit": "g/L"}, {"measurement": "IgA", "setting": "IgG, IgA, IgM; day 8 post-op.", "value": 2.5, "unit": "g/L"}, {"measurement": "IgM", "setting": "IgG, IgA, IgM; day 8 post-op.", "value": 0.86, "unit": "g/L"}, {"measurement": "IgG", "setting": "IgG, IgA, IgM; day 8 post-op.", "value": 12.75, "unit": "g/L"}, {"measurement": "T-killers, in words", "setting": "T-killers [3]", "value": "Analogous suppression effect"}, {"measurement": "T-helpers", "setting": "T-helpers; day 1 post-op.", "value": 8, "unit": "%"}, {"measurement": "T-helpers", "setting": "T-helpers; day 5 post-op.", "value": 39.9, "unit": "%"}, {"measurement": "T-helpers", "setting": "T-helpers; day 8 post-op.", "value": 32, "unit": "%"}, {"measurement": "T-helpers", "setting": "T-helpers; day 13 post-op.", "value": 34.7, "unit": "%"}, {"measurement": "T-helpers", "setting": "T-helpers; day 18 post-op.", "value": 14.5, "unit": "%"}, {"measurement": "number of T-helpers", "setting": "T-helpers; second group, 50 μg/kg every other day, 7 days after surgery, from 37%", "value": 7, "unit": "%"}, {"measurement": "effect on T-suppressors, in words", "setting": "T-suppressors; 25 and 50 μg/kg IV", "value": "suppresses the number of T-suppressor cells"}, {"measurement": "T-suppressor", "setting": "T-suppressors; day 0 (baseline)", "value": 47, "unit": "%"}, {"measurement": "T-suppressor", "setting": "T-suppressors; day 1", "value": 40, "unit": "%"}, {"measurement": "T-suppressor", "setting": "T-suppressors; day 2", "value": 21, "unit": "%"}, {"measurement": "T-suppressor", "setting": "T-suppressors; day 4", "value": 11, "unit": "%"}, {"measurement": "T-suppressor", "setting": "T-suppressors; day 8", "value": 11, "unit": "%"}, {"measurement": "T-suppressor", "setting": "T-suppressors; day 12", "value": 14, "unit": "%"}, {"measurement": "T-suppressor", "setting": "T-suppressors; day 21", "value": 46, "unit": "%"}, {"measurement": "T-suppressors", "setting": "T-suppressors; day 0 (baseline)", "value": 43, "unit": "%"}, {"measurement": "T-suppressors", "setting": "T-suppressors; day 1", "value": 31, "unit": "%"}, {"measurement": "T-suppressors", "setting": "T-suppressors; day 2", "value": 19, "unit": "%"}, {"measurement": "T-suppressors", "setting": "T-suppressors; day 4", "value": 12, "unit": "%"}, {"measurement": "T-suppressors", "setting": "T-suppressors; day 8", "value": 7.4, "unit": "%"}, {"measurement": "T-suppressors", "setting": "T-suppressors; day 12", "value": 13, "unit": "%"}, {"measurement": "T-suppressors", "setting": "T-suppressors; day 21", "value": 44, "unit": "%"}]}]}
